Experimental data taken from ChEMBL document CHEMBL3832022, “DailyMed|setid=50ee3815-7675-4bc0-a88a-ab3886aea795 | ESTRING - estradiol ring|Physicians Total Care, Inc”.

Tests used:
[1] = (§1) Mean steady-state pharmacokinetic parameters for Estradiol evaluated after a single dose of 2 mg of Estradiol as estridiol vaginal ring; type: ADME, organism-based; parameters: dose 2 mg, route vaginal; conditions: human, in vivo, dosed compound id 17, dosed compound name ESTRADIOL, gender female, regimen Single dose, sampling time1 12 weeks, tissue Serum
[2] = species on record: Homo sapiens; test: as §1; type: ADME, organism-based; parameters: dose 2 mg, route vaginal; conditions: in vivo, other, dosed compound id 17, dosed compound name ESTRADIOL, gender female, regimen Single dose, sampling time1 12 weeks, tissue Serum

Cmax ([1]; 2 mg): 0.0632 ng/mL
Tmax ([1]; dose 2 mg, route vaginal): 30 to 60 min
concentration at 12 weeks ([1]; dose 2 mg, route vaginal, read-out: Css-12w): 0.008 ng/mL
Cmax [2]: 0.0556 ng/mL
SMILES: C[C@]12CC[C@@H]3c4ccc(O)cc4CC[C@H]3[C@@H]1CC[C@@H]2O [ESTRADIOL]
